The structures appear in SMILES notation.

One assay has as its system Acinetobacter baumannii ATCC 17978. As to the kind of experiment: Antimicrobial susceptibility testing: 90% growth inhibitory concentration (IC90) determination. Type of assay: cell-based. Conditions: 90% growth inhibitory concentration; Acinetobacter baumannii ATCC17978; Iso-Sensitest broth, OD 600 nm over 16h; read-out: ATCC17978 IC90. The protocol:
Antimicrobial Susceptibility Testing:
90% Growth Inhibitory Concentration (IC90) Determination
The in vitro antimicrobial activity of the compounds was determined according to the following procedure:
The assay used a 10-points Iso-Sensitest broth medium to measure quantitatively the in vitro activity of the compounds against Acinetobacter baumannii ATCC 17978 and Acinetobacter baumannii ATCC 17961.
Stock compounds in DMSO were serially twofold diluted (e.g. range from 50 to 0.097 μM final concentration) in 384 wells microtiter plates and inoculated with 49 μl the bacterial suspension in Iso-Sensitest medium to have a final cell concentration of ˜5×10^(5) CFU/ml in a final volume/well of 50 ul/well. Microtiter plates were incubated at 35±2° C.
Bacterial cell growth was determined with the measurement of optical density at λ=600 nm each 20 minutes over a time course of 16h. Growth inhibition was calculated during the logarithmic growth of the bacterial cells with determination of the concentration inhibiting 50% (IC50) and 90% (IC90) of the growth.
Table 1 provides the 90% growth inhibitory concentrations (IC90) in micromoles per liter of the compounds of present invention obtained against the strain Acinetobacter baumannii ATCC17978 and Acinetobacter baumannii ATCC17961.
A word on the IC90: it is the concentration needed for an effect of 90%. Consider `COc1ccc(-c2cnc3c(Nc4ccc(C(=O)NCCC5CCOCC5)c(C)c4)nccn23)cc1F` [Example 37, 4-[[3-(3-fluoro-4-methoxy-phenyl)imidazo[1,2-a]pyrazin-8-yl]amino]-2-methyl-N-(2-tetrahydropyran-4-ylethyl)benzamide; 2,2,2-trifluoroacetic acid], for which the IC90 was 0.24 µM.
Take `COc1ccc(-c2cnc3c(Nc4ccc(C(=O)NCC5CCOCC5)c(Cl)c4)nccn23)c(F)c1F` [Example 40, 2-chloro-4-[[3-(2,3-difluoro-4-methoxy-phenyl)imidazo[1,2-a]pyrazin-8-yl]amino]-N-(tetrahydropyran-4-ylmethyl)benzamide; 2,2,2-trifluoroacetic acid]: the IC90 worked out at 0.18 µM.
The same measure, in the same setting: the same measure for `COc1ccc(-c2cnc3c(Nc4ccc(C(=O)N(C)CC5CCOCC5)c(Cl)c4)nccn23)c(F)c1F` [Example 41, 2-chloro-4-[[3-(2,3-difluoro-4-methoxy-phenyl)imidazo[1,2-a]pyrazin-8-yl]amino]-N-methyl-N-(tetrahydropyran-4-ylmethyl)benzamide; 2,2,2-trifluoroacetic acid]: 0.62 µM; for `COc1ccc(-c2cnc3c(Nc4ccc(C(=O)N(C)CCN5CCNCC5)c(Cl)c4)nccn23)c(F)c1F` [Example 44, 2-chloro-4-[[3-(2,3-difluoro-4-methoxy-phenyl)imidazo[1,2-a]pyrazin-8-yl]amino]-N-methyl-N-(2-piperazin-1-ylethyl)benzamide; 2,2,2-trifluoroacetic acid]: 0.12 µM.

Still in this assay, the particulars now being: Acinetobacter baumannii, ATCC17978, 16 h, 90% growth inhibitory concentration; Acinetobacter baumannii ATCC17978; Iso-Sensitest broth, OD 600 nm over 16h; read-out: ATCC17978 IC90.
Consider `COc1ccc(-c2cnc3c(Nc4ccc(C(=O)N(C)Cc5cccnc5)c(C)c4)nccn23)cc1F` [Example 38, 4-[[3-(3-fiuoro-4-methoxy-phenyl)imidazo[1,2-a]pyrazin-8-yl]amino]-N,2-dimethyl-N-(3-pyridylmethyl) benzamide], for which the IC90 was found to be 0.19 µM.
On the same count and under the same terms, next, `COc1ccc(-c2cnc3c(Nc4ccc(C(=O)N(C)Cc5ccncn5)c(C)c4)nccn23)cc1F` [Example 39, 4-[[3-(3-fluoro-4-methoxy-phenyl)imidazo[1,2-a]pyrazin-8-yl]amino]-N,2-dimethyl-N-(pyrimidin-4-ylmethyl)benzamide]: 0.24 µM; `COc1ccc(-c2cnc3c(Nc4ccc(C(=O)NCC5CCSCC5)c(Cl)c4)nccn23)c(F)c1F` [Example 42, 2-chloro-4-[[3-(2,3-difluoro-4-methoxy-phenyl)imidazo[1,2-a]pyrazin-8-yl]amino]-N-(tetrahydrothiopyran-4-ylmethyl)benzamide]: 0.89 µM.
Still for that read-out and setting: next, `O=C(NCC1CCNCC1)c1ccc(Nc2nccn3c(-c4ccc(OC(F)F)c(F)c4F)cnc23)cc1Cl` [Example 43, 2-chloro-4-[[3-[4-(difluoromethoxy)-2,3-difluoro-phenyl]imidazo[1,2-a]pyrazin-8-yl]amino]-N-(4-piperidylmethyl) benzamide; 2,2,2-trifluoroacetic acid]: 0.22 µM; `Cc1cc(Nc2nccn3c(-c4ccc(OC(F)F)cc4)cnc23)ccc1C(=O)N(C)CCN1CCNCC1` [Example 45, 4-[[3-[4-(difluoromethoxy)phenyl]imidazo[1,2-a]pyrazin-8-yl]amino]-N,2-dimethyl-N-(2-piperazin-1-ylethyl)benzamide]: 0.35 µM; `Cc1cc(Nc2nccn3c(-c4ccc(OC(F)F)cc4)cnc23)ccc1C(=O)NCCN1CCNCC1` [Example 46]: 0.49 µM.
Same read-out and setting: next, `COc1ccc(-c2cnc3c(Nc4ccc(C(=O)NCCC5CCN(C)CC5)c(C)c4)nccn23)cc1` [Example 48]: 0.22 µM; `COc1ccc(-c2cnc3c(Nc4ccc(C(=O)NCCN5CCN(C)CC5)c(C)c4)nccn23)cc1` [Example 49]: 0.47 µM.
Regarding `Cc1cc(Nc2nccn3c(-c4ccc(OC(F)F)cc4)cnc23)ccc1C(=O)N(C)CCN(C)C` [Example 50, 4-((3-(4-(difluoromethoxy)phenyl)imidazo[1,2-a]pyrazin-8-yl)amino)-N-(2-(dimethylamino)ethyl)-N,2-dimethylbenzamide], the IC90 is 4.3 µM.

Source of the values: patent publication US20230012368A1 (Hoffmann-La Roche Inc., priority 2018, published 2023).
